Biological target: Syk protein kinase (Homo sapiens (Human), UniProt P43405)
Assay: In vitro evaluation of inhibitory activity against Syk protein kinase (HTRF KinEASE TK)
Type: biochemical
Description: Test purpose: to measure an inhibitory IC50 value of the compounds against Syk protein kinase.
Test material: Syk kinase (Invitrogen, PV3857) • DTT (Sigma#43815): dithiothreitol • ATP (Sigma#A7699): triphosadenine • MgCl2 (Sigma#63020): magnesium chloride • MnCl2 (Sigma#M1787): manganese chloride • EDTA (Invitrogen#15575-020): ethylenediaminetetraacetic acid • HEPES Buffer (Invitrogen#15630-080): zwitterionic sulfonic acid buffer • HTRF® KinEASE™ TK (Cisbio#62TK0PEC, 20000 tests): HTRF kinase kit • Low volume, 384-well, white polystyrene plate (Greiner#784075) • 384-well microplates (Greiner#781946) • Centrifuge (Eppendorf#5810R) • Micropipette (Eppendorf) • Pipette (Greiner) • Pipettor (Eppendorf) • Mutidorp injector • POD 810 Plate Assembler Fully Automatic Microplate Pretreatment System • Envision Reader […]

IC50 (ATP 2 μM): 25 nM
inhibitory activity against Syk (conclusion in words): good inhibitory activity
SMILES: c1cn2c(n1)c(Nc1ccc(N3CCOCC3)cc1)nc1ccc(-c3cn[nH]c3)cc12

From US20240132503A1, “SALT FORM AND CRYSTAL FORM OF PYRAZOLE SUBSTITUTED IMIDAZO[1,2- A]QUINOXALINE DERIVATIVE” (OCUMENSION THERAPEUTICS (SUZHOU) CO., LTD, priority 2021, published 2024)
